# Test results from patent US8084649B2, “Herbicides” (Syngenta Crop Protection, inc., priority 2007, dated 2011).
# Assays:
# Type in all cases: in vivo
# [1] = test system: Digitaria sanguinalis (DIGSA); assay: Post-emergence herbicidal activity, glasshouse pot test; conditions: Digitaria sanguinalis, evaluated after 14 or 15 days, read-out: Post-emergence activity, DIGSA (100=total damage to plant; 0=no damage to plant); for pest or weed control at 125 g/ha: rate 125 g/ha; for pest or weed control at 500 g/ha: rate 500 g/ha
# Protocol: (§1) Monocotyledonous and dicotyledonous test plants were sown in sterilised standard soil in pots. After cultivation for one day (pre-emergence) or after 10 days cultivation (post-emergence) under controlled conditions in a glasshouse, the plants were sprayed with an aqueous spray solution derived from the formulation of the technical active ingredient in 0.6 ml acetone and 45 ml formulation solution containing 10.6% Emulsogen EL (Registry number 61791-12-6), 42.2% N-methylpyrrolidone, 42.2% dipropylene glycol monomethyl ether (Registry number 34590-94-8) and 0.2% X-77 (Registry number 11097-66-8). The test plants were then grown in a greenhouse under optimum conditions until, 14 or 15 days later for post-emergence and 20 days for pre-emergence, the test was evaluated (100=total damage to plant; 0=no damage to plant). Alopecurus myosuroides (ALOMY), Avena fatua (AVEFA), Lolium perenne (LOLPE), Setaria faberi (SETFA), Digitaria sanguinalis (DIGSA), Echinochloa crus-galli (ECHCG) Post-Emergence Activity
# Setaria faberi (SETFA) [2] = assay: as above; conditions: Setaria faberi, evaluated after 14 or 15 days, read-out: Post-emergence activity, SETFA (100=total damage to plant; 0=no damage to plant); for pest or weed control at 125 g/ha: rate 125 g/ha; for pest or weed control at 500 g/ha: rate 500 g/ha
# Protocol: as §1
# [3] = test system: Alopecurus myosuroides (ALOMY); assay: as above; conditions: Alopecurus myosuroides, evaluated after 14 or 15 days, read-out: Post-emergence activity, ALOMY (100=total damage to plant; 0=no damage to plant); for pest or weed control at 125 g/ha: rate 125 g/ha; for pest or weed control at 500 g/ha: rate 500 g/ha
# Protocol: as §1
# Lolium perenne (LOLPE) [4] = assay: as above; conditions: Lolium perenne, evaluated after 14 or 15 days, read-out: Post-emergence activity, LOLPE (100=total damage to plant; 0=no damage to plant); for pest or weed control at 125 g/ha: rate 125 g/ha; for pest or weed control at 500 g/ha: rate 500 g/ha
# Protocol: as §1
# Avena fatua (AVEFA) [5] = assay: as above; conditions: Avena fatua, evaluated after 14 or 15 days, read-out: Post-emergence activity, AVEFA (100=total damage to plant; 0=no damage to plant); for pest or weed control at 125 g/ha: rate 125 g/ha; for pest or weed control at 500 g/ha: rate 500 g/ha
# Protocol: as §1
# [6] = test system: Echinochloa crus-galli (ECHCG); assay: as above; conditions: Echinochloa crus-galli, evaluated after 14 or 15 days, read-out: Post-emergence activity, ECHCG (100=total damage to plant; 0=no damage to plant); for pest or weed control at 125 g/ha: rate 125 g/ha; for pest or weed control at 500 g/ha: rate 500 g/ha
# Protocol: as §1
# [7] = test system: Digitaria sanguinalis (DIGSA); assay: Pre-emergence herbicidal activity, glasshouse pot test; conditions: Digitaria sanguinalis, 480 h, rate 500 g/ha, evaluated after 20 days, read-out: Pre-emergence activity, DIGSA (100=total damage to plant; 0=no damage to plant)
# Protocol: as §1, with “Pre-Emergence” for “Post-Emergence”
# Setaria faberi (SETFA) [8] = assay: as above; conditions: Setaria faberi, 480 h, rate 500 g/ha, evaluated after 20 days, read-out: Pre-emergence activity, SETFA (100=total damage to plant; 0=no damage to plant)
# Protocol: as §1, with “Pre-Emergence” for “Post-Emergence”
# [9] = test system: Alopecurus myosuroides (ALOMY); assay: as above; conditions: Alopecurus myosuroides, 480 h, rate 500 g/ha, evaluated after 20 days, read-out: Pre-emergence activity, ALOMY (100=total damage to plant; 0=no damage to plant)
# Protocol: as §1, with “Pre-Emergence” for “Post-Emergence”
# Lolium perenne (LOLPE) [10] = assay: as above; conditions: Lolium perenne, 480 h, rate 500 g/ha, evaluated after 20 days, read-out: Pre-emergence activity, LOLPE (100=total damage to plant; 0=no damage to plant)
# Protocol: as §1, with “Pre-Emergence” for “Post-Emergence”
# Avena fatua (AVEFA) [11] = assay: as above; conditions: Avena fatua, 480 h, rate 500 g/ha, evaluated after 20 days, read-out: Pre-emergence activity, AVEFA (100=total damage to plant; 0=no damage to plant)
# Protocol: as §1, with “Pre-Emergence” for “Post-Emergence”
# [12] = test system: Echinochloa crus-galli (ECHCG); assay: as above; conditions: Echinochloa crus-galli, 480 h, rate 500 g/ha, evaluated after 20 days, read-out: Pre-emergence activity, ECHCG (100=total damage to plant; 0=no damage to plant)
# Protocol: as §1, with “Pre-Emergence” for “Post-Emergence”
SMILES,pest or weed control at 125 g/ha [1] [%],pest or weed control at 125 g/ha (Setaria faberi (SETFA) [2]) [%],pest or weed control at 125 g/ha [3] [%],pest or weed control at 125 g/ha (Lolium perenne (LOLPE) [4]) [%],pest or weed control at 125 g/ha (Avena fatua (AVEFA) [5]) [%],pest or weed control at 125 g/ha [6] [%],pest or weed control at 500 g/ha [7] [%],pest or weed control at 500 g/ha (Setaria faberi (SETFA) [8]) [%],pest or weed control at 500 g/ha [9] [%],pest or weed control at 500 g/ha (Lolium perenne (LOLPE) [10]) [%],pest or weed control at 500 g/ha (Avena fatua (AVEFA) [11]) [%],pest or weed control at 500 g/ha [12] [%],pest or weed control at 500 g/ha [1] [%],pest or weed control at 500 g/ha (Setaria faberi (SETFA) [2]) [%],pest or weed control at 500 g/ha [3] [%],pest or weed control at 500 g/ha (Lolium perenne (LOLPE) [4]) [%],pest or weed control at 500 g/ha (Avena fatua (AVEFA) [5]) [%],pest or weed control at 500 g/ha [6] [%]
CCc1cc(C)cc(CC)c1C1=C(O)CC(CC(C)S(=O)(=O)C(C)C)CC1=O (stereo not drawn) [Compound T54],70,50,80,80,60,80,100,80,100,100,80,100,,,,,,
CCCCCCCCCCCC(=O)OC1=C(c2c(CC)cc(C)cc2CC)C(=O)CC2(CCOCC2)C1 [Compound P44],100,90,80,90,90,90,100,100,100,100,100,100,,,,,,
COC1CCC2(CC1)CC(=O)C(c1cc(C)ccc1C)=C(OC(=O)CC(C)(C)C)C2 (stereo not drawn) [Compound P56],,,,,,,100,100,100,60,60,80,80,70,70,70,10,80
CCc1cc(C)cc(CC)c1C1=C(OC(=O)Cc2ccc(F)cc2)CC2(CCOCC2)CC1=O [Compound P7],80,80,80,100,80,80,100,100,40,100,80,70,,,,,,
CCc1cc(C)cc(CC)c1C1=C(OC(=O)OCC(C)(C)C)CC2(CCOCC2)CC1=O [Compound P19],70,70,90,90,90,100,100,100,100,100,100,100,,,,,,
CCc1cc(C)cc(CC)c1C1=C(O)CC(CC(C)S(C)(=O)=O)CC1=O (stereo not drawn) [Compound T30],,,,,,,100,100,80,90,80,100,100,100,70,80,90,100
